Source: patent publication US20130096077A1, “Nematicidal Mixtures for Use in Sugar Cane” (priority 2010, published 2013)

Key:
Format in all cases: in vivo
Paratrichodorus species = assay: Nematicidal activity, sugar cane field, in furrow tank mix application; conditions: fipronil 200, abamectin 90, mixture 200 + 90 g a.i./ha; for Nematode activity in the soil 90 days after planting: 1000 ml soil incl. roots, in furrow at planting, blank 133; for Efficacy/mortality: 90 days after planting, in furrow
Protocol: (§1) Fipronil was used in the commercially available formulation Regent® 800 WG, containing Fipronil in a concentration of 800 g/kg. Abamectin was used in the commercially available EC formulation Vertimec® 18 CE, containing Abamectin in a concentration of 18 g/I.
(§2) Tank mixes of the commercial formulations of fipronil and abamectin diluted with water were prepared in a ratio such that the application rates identified in the tables below were achieved when 100 liter of tank mix formulation were applied to sugar cane in furrow.
(§3) The tank mix formulation was applied in furrow spraying over the sugar cane stems (cuttings/segments, 1 to 3 nodes segments) at the planting time.
(§4) The synergistic effect was determined by Limpel's formula. Synergism was evident if the observed effect for the mixture is greater than the expected calculated effect:
(§5) E=Expected activity of the mixture X=activity of compound X Y=activity of compound Y
(§6) Treatments were done mid of June 2009 in Brazil in sugar cane fields which had not been pretreated with nematicides, that is, in fields showing an average nematode population.
(§7) Treatments were done only at the time of planting, that is, no further in furrow treatment was conducted. Each treatment experiment was replicated 6 times.
(§8) Nematicidal activity for Helicotylenchus and Paratrichodorus species was evaluated before the spraying for different portions of 1000 ml of soils collected at different sites of the field (“blank” in Table 1).
(§9) 90 days after spraying the tank mix formulation, different portions of 1000 ml of soil (including roots) were collected at different sites of the field, and the soil and the root knots were evaluated for nematicidal activity of Helicotylenchus and Paratrichodorus species and efficacy/mortality, respectively.
(§10) Synergism was evident if the % observed mortality for the mixture was greater than the % expected mortality.

Helicotylenchus species = assay: as above; conditions: fipronil 200, abamectin 90, mixture 200 + 90 g a.i./ha; for Nematode activity in the soil 90 days after planting: 1000 ml soil incl. roots, in furrow at planting, blank 317; for Efficacy/mortality: 90 days after planting, in furrow
Protocol: as §1, §2, §3, §4, §5, §6, §7, §8, §9, §10

[1] = tested on: sugar cane (variety SP80-1842); assay: Yield increase of sugar cane; conditions: fipronil 200, abamectin 126, mixture 200 + 126 g a.i./ha; for Yield: in furrow at planting, untreated 102.81; for % increase of yield: vs untreated
sugar cane = assay: Plant health activity: tillering of sugar cane; conditions: fipronil 200, abamectin 90, mixture 200 + 90 g a.i./ha; for No. of tillers 180 days after planting: average per 1.0 linear meter, in furrow at planting, blank 19.75; for % of increase: tillers 180 days after planting vs blank
Protocol: as §1, §2, §3, §4, §5
The tank mix formulation of the mixture of fipronil and abamectin was prepared as described above for testing of nematicidal activity. The tank mix formulation was applied to sugar cane as described above for testing of nematicidal activity.
Tillering was evaluated before the application of the tank mix (“blank” in Table 2) and 180 days after planting/application the tank mix formulation. Each replication (plot) was evaluated at 3 different randomized points, each point consisting of 1.0 linear meter of the central rows of the plot. Evaluation was done for 4 replications (plots).

Molecule | Nematode activity in the soil 90 days after planting (Paratrichodorus species) | Efficacy/mortality (Paratrichodorus species) | Nematode activity in the soil 90 days after planting (Helicotylenchus species) | Efficacy/mortality (Helicotylenchus species) | Yield [1] | % increase of yield [1] | No. of tillers 180 days after planting (sugar cane) | % of increase (sugar cane)
N#Cc1nn(-c2c(Cl)cc(C(F)(F)F)cc2Cl)c(N)c1[S+]([O-])C(F)(F)F (stereo not shown) [Fipronil] | 100 | 25% | 367 | 0% | 106.31 tons/ha | 3.4% | 20.25 | 2.5%
Abamectin | 133 | 0% | 117 | 63% | 106.33 tons/ha | 3.4% | 21.5 | 8.9%
